Assay results published in PMC11459923, “Identification of novel and potent inhibitors of SARS-CoV-2 main protease from DNA-encoded chemical libraries” (Antimicrobial Agents and Chemotherapy, 2024).
Like-named read-outs stand apart in the source and are kept apart here.

Assays:
M^pro = conditions: read-out: IC50 M^pro; cited from earlier work
SARS-CoV-2 = experiment: microbe, parasite or virus in culture; format: cell-based
in vitro [1] = conditions: human, Caco-2
SARS-CoV-2 M^pro [2] = target: T1, SARS-CoV-2 M^pro (Severe acute respiratory syndrome coronavirus 2, UniProt P0DTD1); experiment: In vitro FRET enzymatic assay (screening at 1 µM and SAR IC50); format: biochemical; conditions: read-out: IC50 ± SEM
human cathepsin S = target: T2, human cathepsin S (Homo sapiens, UniProt P25774); experiment: Counter assay screening, SensoLyte 440 cathepsin S kit; format: biochemical; conditions: for Inhibitory activity against human Cathepsin S: concentrations 50 to 0.00085 µM; for IC50: tested up to 50 µM
T2 construct: purchased Anaspec, Inc. SensoLyte 440 cathepsin S Assay Kit (catalogue number not given)
T2 sequence (P25774 115-331): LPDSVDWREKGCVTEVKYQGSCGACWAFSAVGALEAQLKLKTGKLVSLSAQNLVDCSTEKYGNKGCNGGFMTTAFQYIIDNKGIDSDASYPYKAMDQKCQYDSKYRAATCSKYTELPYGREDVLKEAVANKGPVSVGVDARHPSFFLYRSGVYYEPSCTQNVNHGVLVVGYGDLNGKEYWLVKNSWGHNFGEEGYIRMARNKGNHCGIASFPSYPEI

SARS-CoV-2 M^pro [3] = target: T1, SARS-CoV-2 M^pro; experiment: Mpro protease activity assay (FRET, used for Table 1); format: biochemical
[4] = target: avi-tagged SARS-CoV-2 M^pro (Severe acute respiratory syndrome coronavirus 2, UniProt P0DTD1); format: binding
[5] = mouse; for Metabolic stability: microsomes
in vitro [6] = conditions: mouse, microsomes
[7] = human; for Metabolic stability: microsomes
in vitro [8] = conditions: human, microsomes
[9] = 75 nM M^pro, 10 µM substrate, 11-point series from 50 µM

In the case of CC(C)C[C@H](NC(=O)OCc1ccccc1)C(=O)N[C@@H](CC1CCNC1=O)C(O)S(=O)(=O)O (stereo partly drawn) [GC376], the IC50 (M^pro) is given as 150 nM.
For N#Cc1cc(C(=O)N[C@H](CC2CCC2)C(=O)N[C@H](CC(=O)N[C@H](Cc2ccncc2)C(=O)O)Cc2c[nH]c3ccccc23)ccn1 [MP1], the “Protective effect on infected Calu-3 (CPE)” value (SARS-CoV-2) was “no protective effect”, the EC50 (SARS-CoV-2; Severe acute respiratory syndrome coronavirus 2, Calu-3, 48 h, read-out: EC50 inhibition of CPE development) was 2300 nM and the Papp A→B (in vitro [1]) was 5.4 ×10⁻⁶ cm/s. For the same compound, the Papp B→A (in vitro [1]) was 2.5 ×10⁻⁶ cm/s.
Work on CCCC[C@@H](NC(=O)c1ccnc(C#N)c1)C(=O)N[C@H](CC(=O)N[C@H](Cc1ccncc1)C(=O)O)Cc1c[nH]c2ccccc12 [MP9] yielded an IC50 (SARS-CoV-2 M^pro [2]) of 139 ± 49 nM.
In the case of CCCCC(NC(=O)CC(Cc1c[nH]c2ccccc12)NC(=O)C(Cc1ccccc1)NC(=O)c1ccnc(C#N)c1)C(=O)NC (stereo not drawn) [SLL07], the “Inhibitory activity against human Cathepsin S” value (“Inhibitory activity” below) (human cathepsin S) is reported as “no inhibitory activity”, the IC50 (human cathepsin S) is reported as greater than 50000 nM and the IC50 (SARS-CoV-2 M^pro [3]; [9]) is reported as 140 nM. For the same compound, the “IC50 M^pro” value (SARS-CoV-2 M^pro [3]; off-DNA synthesized DECL hits) was “low nanomolar range”, the “Enrichment score M^pro” value [4] was 135,654 and the “Enrichment score M^pro +GC376” value [4] was 0.
In the case of CNC(=O)[C@@H](CSCNC(C)=O)NC(=O)c1ccc2cncc(-c3ccc(Oc4ccccc4)nc3)c2n1 [SLL08], the “Inhibitory activity” value (human cathepsin S) is reported as “no inhibitory activity”, the IC50 (human cathepsin S) is reported as greater than 50000 nM and the IC50 (SARS-CoV-2 M^pro [3]; [9]) is reported as greater than 50000 nM. The “Enrichment score M^pro” value [4] was 11,444 and the “Enrichment score M^pro +GC376” value [4] was 676.
With CNC(=O)C(Cc1ccncc1)NC(=O)CC(Cc1c[nH]c2ccccc12)NC(=O)C(CC1CCC1)NC(=O)c1ccnc(C#N)c1 (stereo not drawn) [SLL11] the “In vitro half time” value [5] was 9 min, the “Metabolic stability” value [5] was “low metabolic stability” and the “Inhibitory activity” value (human cathepsin S) was “no inhibitory activity”. For the same compound, the IC50 (human cathepsin S) was greater than 50000 nM, the IC50 (SARS-CoV-2 M^pro [3]; [9]) was 30 nM and the IC50 (SARS-CoV-2 M^pro [3]; off-DNA synthesized DECL hits) was no more than 30 nM. The “IC50 M^pro” value (SARS-CoV-2 M^pro [3]; off-DNA synthesized DECL hits) was “low nanomolar range”, the microsomal CLint (in vitro [6]) was 154 µL/min/mg and the “In vitro half time” value [7] was 10 min. The “Metabolic stability” value [7] was “low metabolic stability”, the “Enrichment score M^pro” value [4] was 515,485 and the “Enrichment score M^pro +GC376” value [4] was 206,982. It also gave a microsomal CLint (in vitro [8]) of 139 µL/min/mg.
In the case of CCCC[C@@H](NC(=O)c1ccnc(C#N)c1)C(=O)N[C@H](CC(=O)N[C@H](Cc1ccncc1)C(=O)NC)Cc1c[nH]c2ccccc12 [SLL12], the “In vitro half time” value [5] is reported as 8 min, the “Metabolic stability” value [5] is reported as “low metabolic stability” and the “Inhibitory activity” value (human cathepsin S) is reported as “no inhibitory activity”. For the same compound, the IC50 (human cathepsin S) was greater than 50000 nM, the IC50 (SARS-CoV-2 M^pro [3]; [9]) was 53 nM and the “IC50 M^pro” value (SARS-CoV-2 M^pro [3]; off-DNA synthesized DECL hits) was “low nanomolar range”. The microsomal CLint (in vitro [6]) was 170 µL/min/mg, the “In vitro half time” value [7] was 11 min and the “Metabolic stability” value [7] was “low metabolic stability”. For the same compound, the “Enrichment score M^pro” value [4] was 488,354, the “Enrichment score M^pro +GC376” value [4] was 0 and the microsomal CLint (in vitro [8]) was 131 µL/min/mg.
